According to patent US20030109705A1, “Novel cyanoenamines useful as ligands for modulating gene expression in plants or animals” (priority 2001, published 2003):
Converted amounts (≈) assume the structure as drawn.

Tests used:
[1] = molecular target: T1, truncated Manduca EcR-VP16 (Manduca sexta, UniProt P49883); experiment: Cell-based luciferase reporter assay of transcriptional activation by EcR receptor plasmid (MMV) in S2 Drosophila cells; conditions: ligand 2 μM, harvested 24 hours after addition, ratio relative to reporter construct without ligand
T1 construct: A truncated Manduca EcR containing domains C, D and E of the receptor was constructed as follows; engineered start Met (in-frame ATG) (N); expressed in transfected cells; host or cells: S2 Drosophila cells (ATCC CRL-1963), transiently transfected with plasmid MMV (pPacU backbone)
T1 sequence (P49883 112-535, added parts left off): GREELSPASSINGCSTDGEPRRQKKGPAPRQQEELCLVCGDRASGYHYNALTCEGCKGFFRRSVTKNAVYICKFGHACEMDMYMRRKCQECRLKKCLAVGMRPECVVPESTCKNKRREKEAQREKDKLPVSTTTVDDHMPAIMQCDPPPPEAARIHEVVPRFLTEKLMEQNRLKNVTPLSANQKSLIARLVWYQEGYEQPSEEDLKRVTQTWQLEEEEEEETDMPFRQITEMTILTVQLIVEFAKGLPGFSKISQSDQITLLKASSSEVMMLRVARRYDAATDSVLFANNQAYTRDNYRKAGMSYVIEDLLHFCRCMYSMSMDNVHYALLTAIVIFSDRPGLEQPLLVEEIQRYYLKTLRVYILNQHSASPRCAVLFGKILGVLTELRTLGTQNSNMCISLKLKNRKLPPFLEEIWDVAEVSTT
T1 sequence (P20153 whole entry partner, the tested form may be a part): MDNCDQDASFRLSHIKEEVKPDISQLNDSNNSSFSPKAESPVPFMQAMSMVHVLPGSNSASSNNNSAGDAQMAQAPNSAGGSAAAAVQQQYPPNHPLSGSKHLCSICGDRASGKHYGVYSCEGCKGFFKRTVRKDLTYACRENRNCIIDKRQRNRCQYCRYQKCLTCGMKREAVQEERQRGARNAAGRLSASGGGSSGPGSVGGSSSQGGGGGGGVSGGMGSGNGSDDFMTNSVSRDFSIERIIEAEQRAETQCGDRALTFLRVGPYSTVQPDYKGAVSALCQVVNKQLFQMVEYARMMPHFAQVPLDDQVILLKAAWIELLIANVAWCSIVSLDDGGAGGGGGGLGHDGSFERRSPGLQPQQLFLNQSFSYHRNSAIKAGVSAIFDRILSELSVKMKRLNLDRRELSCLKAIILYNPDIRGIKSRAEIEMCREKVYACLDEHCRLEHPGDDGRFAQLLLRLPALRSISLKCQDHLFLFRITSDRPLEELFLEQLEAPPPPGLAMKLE
Source text: A minimal promoter vector was made by ligating a synthetic TATA box sequence oligonucleotide pair, 5′-agcttgagggtataatg-3′ (SEQ ID NO: 1) and 3′-actcccatattactcga-5′ (SEQ ID NO:2), into the HindIII site of vector pGL3-basic (Promega) so that the HindIII site was recreated 5′ to the inserted oligonucleotide and destroyed between the oligonucleotide and the downstream luciferase gene. This vector was designated TATA5.
The binding site from the hsp27 gene (Koelle et al., Cell 67(1): 59-77 (1991)) was made with the oligonucleotide pair, 5′-[…]-3′ (SEQ ID NO:3) and 3′-[…]-5′ (SEQ ID NO:4). This site was multimerized and ligated into the BglII site of vector TATA-5. One isolate, pCGS154, contained the sequence below in the inserted region, having 2 pairs of sites in inverted orientations. […] The sequence of the inserted region in pCGS154 is shown below:
PCR primers were designed based on the published sequence for Manduca Sexta ecdysone receptor (EcR) (genbank accession number U19812 (SEQ ID Nos:6 and 7) to clone the gene in two halves. RNA was prepared from prepupae larva of Manduca sexta using the LiCl/phenol method (Current Protocols in Molecular Biology, Vol. 1, Unit 4.3, 1987, John Wiley and Sons, publishers) and 1 μg of total RNA was used to prepare cDNA using MMLV reverse transcriptase (Promega). The cDNA was used in a PCR reaction with the primers described above to generate two PCR products for the 5′ and 3′ halves of the gene. These were subcloned into the pGEM-TA vector (Promega) and sequenced. The two fragments were joined at a unique Ndel site within each fragment and ligated into pBS-KS (Stratagene) to create a full length Manduca sexta EcR clone named pBSFLMa. A HindIII site followed by an inframe stop codon and BamHI site was placed at the 3′ end of the E domain (ligand binding domain) of the Manduca EcR receptor using the oligonucleotide: 5′-[…]-3′ (SEQ ID NO:8).
A truncated Manduca EcR containing domains C, D and E of the receptor was constructed as follows. A BamHI site and in-frame ATG was engineered just 5′ to the C domain using the degenerate primers 5′-ggatccatgggycgagaagaattrtcaccr-3′ (SEQ ID NO:9) and 5′-ccacrtcccagatctcctcga-3′ (SEQ ID NO:10). This fragment was then joined using the Nde site to the 3′ end of Manduca EcR, which has an engineered HindIII site at the 3′ end as described above.
A fragment containing the herpes simplex VP16 transactivation domain was cloned from plasmid 35S/USP-VP16 (U.S. Pat. No. 5,880,333) using the PCR primers 5′-aagcttgcccccccgaccg-3′ (SEQ ID NO:11) (placing a HindIII site at the 5′ end of the domain) and 5′-[…]-3′ (SEQ ID NO:12) (placing an inframe stop codon followed by BamHI and Xbal sites at the 3′ end of the domain). The VP16 domain was fused in frame to the 3′ end of the E domain of the ecdysone receptor using the HindIII site 3′ to EcR clone and the HindIII site engineered at the 5′ end of VP16.
The plasmid pPacU (Courey A J and Tjian R (1988) Cell 55, 887-898) was used as the starting vector for expression constructs. The truncated Manduca EcR-VP16 was ligated into pPacU using the BamHI sites flanking the coding region to create the construct referred to as MMV.
An in vivo cell based assay was used to measure transcriptional activation by the EcR receptor plasmid in the presence of the chemical ligands as described above. S2 Drosophila cells (ATCC CRL-1963) (commonly known as cells from the fruit fly) were transiently transfected with luciferase reporter (pCGS154) and receptor expression plasmid (MMV) using the calcium phosphate precipitation procedure (Di Nocera and David (1983) PNAS 80, 7095-7098). S2 cells were plated in 96 well format at a density of 2×10^5 in 166.6 μl of Schneider's Drosophila media supplemented with antibiotics and 10% heat inactivated fetal bovine serum (GIBO-BRL). […]

Spodoptera littoralis = Spodoptera littoralis larvicide, feeding/contact activity on sprayed cotton leaf discs; type: in vivo; conditions: foliar, L1 larvae on sprayed cotton leaf discs, checked 2 and 6 days after treatment, read-out: Insecticidal activity (EC80 ppm) SPODLI
Source text: Spodoptera littoralis (abbreviated as SPODLI) (commonly known as Egyptian cotton leafworm): larvicide, feeding/contact activity. Cotton leaf discs were placed on agar in petri dishes and individually sprayed with test solution of cyanoenamine in an application chamber. After drying, the leaf discs were infested with 20 to 25 L1 larvae. The samples were checked for mortality, repellent effect, feeding behavior, and growth regulation 2 and 6 days after treatment. Each of Spodopertera littoralis and Heliothis virescens is a larval form of an insect in the order Lepidoptera.

Heliothis virescens = Heliothis virescens ovo-larvicide, feeding/contact activity on eggs on artificial diet; type: in vivo; conditions: 144 h, fresh eggs (0 to 24 hours old) on artificial diet, 6 days incubation, read-out: Insecticidal activity (EC80 ppm) Hv
Description: Heliothis virescens (abbreviated as Hv) (commonly known as tobacco budworm): ovo-larvicide, feeding/contact activity. 30 to 35 fresh eggs (0 to 24 hours old), deposited on filter paper, were placed in petri dishes on a layer of artificial diet and 0.8 mL of each test solution of cyanoenamine was individually pipetted onto them. After an incubation period of 6 days, samples were checked for egg mortality, larval mortality, and growth regulation.
Each of Spodopertera littoralis and Heliothis virescens is a larval form of an insect in the order Lepidoptera.

| Structure (SMILES) | Gene switch activity fold induction [1] [fold induction] | EC80 (Spodoptera littoralis) [µg/mL] | EC80 (Heliothis virescens) [µg/mL] |
| --- | --- | --- | --- |
| Cc1cccc(/C(C#N)=C(\NC(=O)c2cccc(C)c2C)C(C)(C)C)c1 | 66 |  |  |
| Cc1c(Cl)cccc1C(=O)N/C(=C(/C#N)c1ccccc1)C(C)(C)C | 191 |  |  |
| Cc1cccc(C(=O)N/C(=C(/C#N)c2ccccc2)C(C)(C)C)c1C | 636 |  |  |
| Cc1c(Br)cccc1C(=O)N/C(=C(/C#N)c1ccccc1)C(C)(C)C | 1112 |  |  |
| Cc1cc(C)cc(/C(C#N)=C(\NC(=O)c2cccc(Cl)c2Cl)C(C)(C)C)c1 | 1145 |  |  |
| CCc1c(OC)cccc1C(=O)N/C(=C(/C#N)c1ccccc1)C(C)(C)C | 239 |  |  |
| COc1cccc(C(=O)N/C(=C(/C#N)c2ccccc2)C(C)(C)C)c1C | 913 |  |  |
| Cc1cc(C)cc(/C(C#N)=C(\NC(=O)c2cccc(Cl)c2C)C(C)(C)C)c1 [drawing 443] |  | 50 (≈ 131 µM) | 5 (≈ 13.1 µM) |
| Cc1cccc(/C(C#N)=C(\NC(=O)c2cccc(Br)c2C)C(C)(C)C)c1 [drawing 444] |  | 200 (≈ 486 µM) | 200 (≈ 486 µM) |
| Cc1cc(C)cc(/C(C#N)=C(\NC(=O)c2cccc(Br)c2C)C(C)(C)C)c1 [drawing 445] |  | > 50 | > 50 |
| CC(C)(C)/C(NC(=O)c1c(F)cccc1F)=C(\C#N)c1ccccc1 [drawing 446] |  | > 100 | > 100 |
| Cc1cc(C)cc(/C(C#N)=C(\NC(=O)c2cccc(C)c2C)C(C)(C)C)c1 [drawing 447] |  | 50 (≈ 139 µM) | 50 (≈ 139 µM) |
| COc1cccc(C(=O)N/C(=C(/C#N)c2cc(C)cc(C)c2)C(C)(C)C)c1C [drawing 448] |  | 100 (≈ 266 µM) | 100 (≈ 266 µM) |
| COc1cccc(C(=O)N/C(=C(/C#N)c2cccc(C)c2)C(C)(C)C)c1C [drawing 449] |  | 200 (≈ 552 µM) | 200 (≈ 552 µM) |
| CCc1ccc(C(=O)N/C(=C(/C#N)c2ccccc2)C(C)(C)C)cc1 [drawing 450] |  | > 100 | > 100 |
| Cc1cc(C)cc(/C(C#N)=C(\NC(=O)c2cccc(Cl)c2C)C(C)(C)C)c1 [drawing 453] | 225 |  |  |
| Cc1cccc(/C(C#N)=C(\NC(=O)c2cccc(Br)c2C)C(C)(C)C)c1 [drawing 457] | 1012 |  |  |
| Cc1cc(C)cc(/C(C#N)=C(\NC(=O)c2cccc(Br)c2C)C(C)(C)C)c1 [drawing 458] | 1121 |  |  |
| CC(C)(C)/C(NC(=O)c1c(F)cccc1F)=C(\C#N)c1ccccc1 [drawing 459] | 29 |  |  |
| Cc1cc(C)cc(/C(C#N)=C(\NC(=O)c2cccc(C)c2C)C(C)(C)C)c1 [drawing 460] | 893 |  |  |
| COc1cccc(C(=O)N/C(=C(/C#N)c2cc(C)cc(C)c2)C(C)(C)C)c1C [drawing 462] | 314 |  |  |
| COc1cccc(C(=O)N/C(=C(/C#N)c2cccc(C)c2)C(C)(C)C)c1C [drawing 463] | 364 |  |  |
| CCc1ccc(C(=O)N/C(=C(/C#N)c2ccccc2)C(C)(C)C)cc1 [drawing 464] | 394 |  |  |
